Results taken from US9409884B2 (Rigel Pharmaceuticals, Inc., priority 2012, dated 2016).

Target: AMPK
Assay: AMPK activation, enzyme-linked immunosorbent assay
Format: biochemical
In short: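 Read-out: ELISA, used to detect compound-driven activation of AMPK.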

Molecule `N#Cc1ccc(CN2CCC(NC(=O)c3ccc(C(=O)NC4CCN(Cc5ccc(C(F)(F)F)cc5)CC4)cc3)CC2)cc1` [Compound 3-31, N^1-(1-(4-cyanobenzyl)piperidin-4-yl)-N^4-(1-(4-(trifluoromethyl)benzyl)piperidin-4-yl)terephthalamide] has an EC50 (Table 10, compounds of Table 3) of less than 100 nM.
For `N#Cc1ccc(CN2CCC(NC(=O)c3ccc(C(=O)NC4CCN(c5ccccc5)CC4)cc3)CC2)cc1` [Compound 3-32, N^1-(1-(4-cyanobenzyl)piperidin-4-yl)-N^4-(1-phenylpiperidin-4-yl)terephthalamide], the EC50 (Table 10, compounds of Table 3) was 10000 to 100000 nM.
`N#Cc1ccc(CN2CCC(NC(=O)c3ccc(C(=O)NC4CCN(Cc5ccccc5)CC4)cc3)CC2)cc1` [Compound 3-33, N^1-(1-benzylpiperidin-4-yl)-N^4-(1-(4-cyanobenzyl)piperidin-4-yl)terephthalamide] showed an EC50 (Table 10, compounds of Table 3) of 10000 to 100000 nM.
Molecule `N#Cc1ccc(CN2CCC(NC(=O)c3ccc4c(c3)CN(Cc3ccc(F)cc3)CC4)CC2)cc1` [Compound 3-34, N-(1-(4-cyanobenzyl)piperidin-4-yl)-2-(4-fluorobenzyl)-1,2,3,4-tetrahydroisoquinoline-7-carboxamide] has an EC50 (Table 10, compounds of Table 3) of less than 100 nM.
With `O=C(NC1CCN(Cc2cccnc2)CC1)c1ccc2c(c1)CN(Cc1ccc(F)cc1)CC2` [Compound 3-35, 2-(4-fluorobenzyl)-N-(1-(pyridin-3-ylmethyl)piperidin-4-yl)-1,2,3,4-tetrahydroisoquinoline-7-carboxamide] the EC50 (Table 10, compounds of Table 3) was 1000 to 10000 nM.
`O=C(NC1CCN(Cc2ccc(C(F)(F)F)cc2)CC1)c1ccc2c(c1)CN(Cc1ccc(F)cc1)CC2` [Compound 3-36, 2-(4-fluorobenzyl)-N-(1-(4-(trifluoromethyl)benzyl)piperidin-4-yl)-1,2,3,4-tetrahydroisoquinoline-7-carboxamide] was tested, and the EC50 (Table 10, compounds of Table 3) was 100 to 1000 nM.
`N#Cc1ccc(CN2CCC(NC(=O)c3ccc4c(c3)CN(Cc3ccc(C#N)cc3)CC4)CC2)cc1` [Compound 3-37, 2-(4-cyanobenzyl)-N-(1-(4-cyanobenzyl)piperidin-4-yl)-1,2,3,4-tetrahydroisoquinoline-7-carboxamide] gave an EC50 (Table 10, compounds of Table 3) of less than 100 nM.
`N#Cc1ccc(CN2CCc3ccc(C(=O)NC4CCN(Cc5cccnc5)CC4)cc3C2)cc1` [Compound 3-38, 2-(4-cyanobenzyl)-N-(1-(pyridin-3-ylmethyl)piperidin-4-yl)-1,2,3,4-tetrahydroisoquinoline-7-carboxamide] was tested, and the EC50 (Table 10, compounds of Table 3) was less than 100 nM.
`N#Cc1ccc(CN2CCc3ccc(C(=O)NC4CCN(Cc5ccc(C(F)(F)F)cc5)CC4)cc3C2)cc1` [Compound 3-39, 2-(4-cyanobenzyl)-N-(1-(4-(trifluoromethyl)benzyl)piperidin-4-yl)-1,2,3,4-tetrahydroisoquinoline-7-carboxamide] gave an EC50 (Table 10, compounds of Table 3) of 1000 to 10000 nM.
`N#Cc1ccc(CN2CCC(NC(=O)c3ccc(C(=O)N4CCN(Cc5ccc(C#N)cc5)CC4)cn3)CC2)cc1` [Compound 4-1, 5-(4-(4-cyanobenzyl)piperazine-1-carbonyl)-N-(1-(4-cyanobenzyl)piperidin-4-yl)picolinamide] gave an EC50 (Table 11, compounds of Table 4) of less than 500 nM.
In the case of `N#Cc1ccc(CN2CCC(NC(=O)c3ccc(C(=O)N4CCN(Cc5ccc(F)cc5)CC4)cn3)CC2)cc1` [Compound 4-2, N-(1-(4-cyanobenzyl)piperidin-4-yl)-5-(4-(4-fluorobenzyl)piperazine-1-carbonyl)picolinamide], the EC50 (Table 11, compounds of Table 4) is reported as less than 500 nM.
For `N#Cc1ccc(CN2CCC(NC(=O)c3ccc(C(=O)N4CCN(Cc5ccc(C(F)(F)F)cc5)CC4)cn3)CC2)cc1` [Compound 4-3, N-(1-(4-cyanobenzyl)piperidin-4-yl)-5-(4-(4-(trifluoromethyl)benzyl)piperazine-1-carbonyl)picolinamide], the EC50 (Table 11, compounds of Table 4) was less than 500 nM.
`O=C(N[C@H]1CCN(Cc2ccc(F)cc2)C1)c1ccc(C(=O)N2CCN(c3ccc(Cl)cc3)CC2)cn1` [Compound 4-4, (S)-5-(4-(4-chlorophenyl)piperazine-1-carbonyl)-N-(1-(4-fluorobenzyl)pyrrolidin-3-yl)picolinamide] gave an EC50 (Table 11, compounds of Table 4) of 1000 to 5000 nM.
`O=C(N[C@H]1CCN(Cc2ccncc2)C1)c1ccc(C(=O)N2CCN(c3ccc(Cl)cc3)CC2)cn1` [Compound 4-5, (S)-5-(4-(4-chlorophenyl)piperazine-1-carbonyl)-N-(1-(pyridin-4-ylmethyl)pyrrolidin-3-yl)picolinamide] showed an EC50 (Table 11, compounds of Table 4) of 1000 to 5000 nM.
Molecule `N#Cc1ccc(CN2CC[C@H](NC(=O)c3ccc(C(=O)N4CCN(c5ccc(Cl)cc5)CC4)cn3)C2)cc1` [Compound 4-6, (S)-5-(4-(4-chlorophenyl)piperazine-1-carbonyl)-N-(1-(4-cyanobenzyl)pyrrolidin-3-yl)picolinamide] has an EC50 (Table 11, compounds of Table 4) of 500 to 1000 nM.
`O=C(NC1CCN(Cc2ccc(Cl)cc2)C1)c1ccc(C(=O)N2CCN(c3ccc(Cl)cc3)CC2)cn1` (stereo not drawn) [Compound 4-7, N-(1-(4-chlorobenzyl)pyrrolidin-3-yl)-5-(4-(4-chlorophenyl)piperazine-1-carbonyl)picolinamide] was tested, and the EC50 (Table 11, compounds of Table 4) was 1000 to 5000 nM.
Molecule `O=C(NC1CCN(Cc2ccc(C(F)(F)F)cc2)C1)c1ccc(C(=O)N2CCN(c3ccc(Cl)cc3)CC2)cn1` (stereo not drawn) [Compound 4-8, 5-(4-(4-chlorophenyl)piperazine-1-carbonyl)-N-(1-(4-(trifluoromethyl)benzyl)pyrrolidin-3-yl)picolinamide] has an EC50 (Table 11, compounds of Table 4) of 1000 to 5000 nM.
Molecule `N#Cc1ccc(CN2CCC(NC(=O)c3ccc(C(=O)N4CCN(c5ccc(S(=O)(=O)N6CCCC6)cc5)CC4)nc3)CC2)cc1` [Compound 4-9, N-(1-(4-cyanobenzyl)piperidin-4-yl)-6-(4-(4-(pyrrolidin-1-ylsulfonyl)phenyl)piperazine-1-carbonyl)nicotinamide] has an EC50 (Table 11, compounds of Table 4) of 500 to 1000 nM.
For `CC(C)S(=O)(=O)c1ccc(N2CCN(C(=O)c3ccc(C(=O)NC4CCN(Cc5ccc(OC(F)(F)F)cc5)C[C@H]4F)cn3)CC2)cc1` (stereo partly drawn) [Compound 4-11, N-((3,4-trans)-3-fluoro-1-(4-(trifluoromethoxy)benzyl)piperidin-4-yl)-6-(4-(4-(isopropylsulfonyl)phenyl)piperazine-1-carbonyl)nicotinamide], the EC50 (Table 11, compounds of Table 4) was less than 500 nM.
`N#Cc1ccc(CN2CCC(NC(=O)c3ccc(C(=O)N4CCN(c5ccc(C(=O)C6CC6)cc5)CC4)nc3)[C@H](F)C2)cc1` (stereo partly drawn) [Compound 4-12, N-((3,4-trans)-1-(4-cyanobenzyl)-3-fluoropiperidin-4-yl)-6-(4-(4-(cyclopropanecarbonyl)phenyl)piperazine-1-carbonyl)nicotinamide] gave an EC50 (Table 11, compounds of Table 4) of less than 500 nM.
Molecule `CS(=O)(=O)c1ccc(CN2CCN(C(=O)c3ccc(C(=O)NC4CCN(Cc5ccc(C#N)cc5)CC4F)cn3)CC2)cc1` (stereo not drawn) [Compound 4-13, N-((3,4-trans)-1-(4-cyanobenzyl)-3-fluoropiperidin-4-yl)-6-(4-(4-(methylsulfonyl)benzyl)piperazine-1-carbonyl)nicotinamide] has an EC50 (Table 11, compounds of Table 4) of 1000 to 5000 nM.
Work on `O=C(NC1CCN(Cc2ccc(OC(F)(F)F)cc2)C[C@H]1F)c1ccc(C(=O)N2CCN(c3ccc(S(=O)(=O)N4CCCC4)cc3)CC2)nc1` (stereo partly drawn) [Compound 4-14, N-((3,4-trans)-3-fluoro-1-(4-(trifluoromethoxy)benzyl)piperidin-4-yl)-6-(4-(4-(pyrrolidin-1-ylsulfonyl)phenyl)piperazine-1-carbonyl)nicotinamide] yielded an EC50 (Table 11, compounds of Table 4) of less than 500 nM.
For `O=C(NC1CCN(Cc2ccc(OC(F)(F)F)cc2)C[C@H]1F)c1ccc(C(=O)N2CCN(Cc3ccc(S(=O)(=O)N4CCCC4)cc3)CC2)nc1` (stereo partly drawn) [Compound 4-15, N-((3,4-trans)-3-fluoro-1-(4-(trifluoromethoxy)benzyl)piperidin-4-yl)-6-(4-(4-(pyrrolidin-1-ylsulfonyl)benzyl)piperazine-1-carbonyl)nicotinamide], the EC50 (Table 11, compounds of Table 4) was less than 500 nM.
For `N#Cc1ccc(CN2CCC(NC(=O)c3ccc(C(=O)N4CCN(Cc5ccc(S(=O)(=O)N6CCCC6)cc5)CC4)nc3)CC2)cc1` [Compound 4-16, N-(1-(4-cyanobenzyl)piperidin-4-yl)-6-(4-(4-(pyrrolidin-1-ylsulfonyl)benzyl)piperazine-1-carbonyl)nicotinamide], the EC50 (Table 11, compounds of Table 4) was less than 500 nM.
`CCNS(=O)(=O)c1ccc(CN2CCN(C(=O)c3ccc(C(=O)NC4CCN(Cc5ccc(C#N)cc5)CC4)cn3)CC2)cc1` [Compound 4-17, N-(1-(4-cyanobenzyl)piperidin-4-yl)-6-(4-(4-(N-ethylsulfamoyl)benzyl)piperazine-1-carbonyl)nicotinamide] gave an EC50 (Table 11, compounds of Table 4) of 1000 to 5000 nM.
For `COc1ccc(CN2CCC(Oc3ccc(C(=O)NC4CCN(Cc5ccccc5)CC4)cc3Cl)CC2)cc1` [Compound 5-1, N-(1-benzylpiperidin-4-yl)-3-chloro-4-(1-(4-methoxybenzyl)piperidin-4-yloxy)benzamide], the EC50 (Table 12, compounds of Table 5) was less than 1000 nM.
In the case of `COc1cc(C(=O)NC2CCN(Cc3ccccc3)CC2)ccc1OC1CCN(Cc2ccccc2)CC1` [Compound 5-2, N-(1-benzylpiperidin-4-yl)-4-(1-benzylpiperidin-4-yloxy)-3-methoxybenzamide], the EC50 (Table 12, compounds of Table 5) is reported as less than 1000 nM.
Work on `Cn1cncc1CN1CCC(Oc2ccc(C(=O)NC3CCN(Cc4ccccc4)CC3)cc2)CC1` [Compound 5-4, N-(1-benzylpiperidin-4-yl)-4-(1-((1-methyl-1H-imidazol-5-yl)methyl)piperidin-4-yloxy)benzamide] yielded an EC50 (Table 12, compounds of Table 5) greater than 100000 nM.
`Cn1cncc1CN1CCC(Oc2ccc(C(=O)NC3CCN(Cc4ccccc4)CC3)cc2Cl)CC1` [Compound 5-5, N-(1-benzylpiperidin-4-yl)-3-chloro-4-(1-((1-methyl-1H-imidazol-5-yl)methyl)piperidin-4-yloxy)benzamide] gave an EC50 (Table 12, compounds of Table 5) of 50000 to 100000 nM.
`O=C(NC1CCN(Cc2ccccc2)CC1)c1ccc(OC2CCN(Cc3ccncc3)CC2)c(Cl)c1` [Compound 5-6, N-(1-benzylpiperidin-4-yl)-3-chloro-4-(1-(pyridin-4-ylmethyl)piperidin-4-yloxy)benzamide] gave an EC50 (Table 12, compounds of Table 5) of less than 1000 nM.
With `COc1cc(C(=O)NC2CCN(Cc3ccccc3)CC2)ccc1OC1CCN(CCCc2ccccc2)CC1` [Compound 5-7, N-(1-benzylpiperidin-4-yl)-3-methoxy-4-(1-(3-phenylpropyl)piperidin-4-yloxy)benzamide] the EC50 (Table 12, compounds of Table 5) was less than 1000 nM.
Molecule `COc1cc(C(=O)NC2CCN(Cc3ccccc3)CC2)ccc1OC1CCN(c2cccs2)CC1` [Compound 5-8, N-(1-benzylpiperidin-4-yl)-3-methoxy-4-(1-(thiophen-2-yl)piperidin-4-yloxy)benzamide] has an EC50 (Table 12, compounds of Table 5) of 1000 to 10000 nM.
`COc1cc(C(=O)NC2CCN(Cc3ccccc3)CC2)ccc1OC1CCN(S(C)(=O)=O)CC1` [Compound 5-9, N-(1-benzylpiperidin-4-yl)-3-methoxy-4-(1-(methylsulfonyl)piperidin-4-yloxy)benzamide] gave an EC50 (Table 12, compounds of Table 5) of 20000 to 50000 nM.
